A short description of test [1]: 1H-NMR titration of template/functional monomer complexation. Conditions: S template, d6-DMSO, 25 °C. It is filed as binding. From the text: A mixture of methanol and water (4:1, v/v) was chosen as the porogen solvent for the D and S templates, as the hydrochloride salts were soluble only in polar solvents. The strength and positioning of the monomer-template interactions are of importance in developing materials with good molecular recognition properties. For the current work, the functional monomers and cross-linker had been constructed into the MIP structure with a view toward obtaining an efficient recognition system in a polar medium. MAA and ACM were generally used as functional monomers for the imprinting process. Both D and S have a phenolic hydroxyl and the nitrogen atom(s) of the amine group(s) acts as a hydrogen donor-acceptor moiety for binding functional monomers with a corresponding hydrogen bonding pattern. […] However, the huge excess of water and methanol that would be form H-bonds in competition with template and monomer, would reduce binding energy between template and monomer. […] The MBAA cross-linker also forms hydrogen bonds with the carboxylic acid and amino groups of the templates. Figure 2 illustrates the dual dopamine/serotonin molecular recognition site generation in this work.
The change in chemical shifts of proton resonances as a function of D (or S) concentrations was studied in DMSO-d6.

In test [2] the test system is serotonin receptors derived from rat hypothalamus. The test can be described thus: Saturation binding of S ligand to rat hypothalamus receptor (Scatchard). Also noted: species or system male-Wistar rat. Conditions: 50 mM Tris HCl, 37 °C, mean ± SD. How it is done:
The equilibrium binding constants of the ergots on dopamine and serotonin receptors derived from rat hypothalamus was examined in a displacement assay using the added D and S as the molecular probes. The male-Wistar rat hypothalami receptors were isolated using a previously described procedure. The receptor pellets were washed with 50 mM Tris HCl until the endogenous D and S are no longer found in the rinse as examined by the fluorescence method described in the binding study. The pellets were then re-suspended in 50 mM Tris HCl with 0.5 mM Na2EDTA, 0.1% Na ascorbate before use. The protein content of the receptor pellets was verified by using the procedure of Bradford. Saturation experiments for the rat hypothalamus receptor were carried out by varying the concentration of D or S ligand in a 50 mM Tris HCl with 0.5 mM Na2EDTA and 0.1% Na ascorbate solution at 37 °C. The D and S binding at various concentrations was determined, using the fluorescence spectroscopic method for assay of the unbound probe as in the binding study.

Structures can show the parent of a compound that is named as a salt. Where two headings read alike, the source gives them in different places.

For the compound `NCCc1c[nH]c2ccc(O)cc12` [S, serotonin hydrochloride], the Kd in test [1] (1:1 complex, read-out: app. Kdiss with MAA, template's hydroxyl group) came out at 680 ± 100 µM; in test [1] (1:1 complex, read-out: app. Kdiss with MAA, template's indolyl amino group), 920 ± 100 µM; in test [1] (read-out: app. Kdiss with ACM, template's hydroxyl group), 190 ± 100 µM; in test [1] (read-out: app. Kdiss with ACM, template's indolyl amino group), 430 ± 100 µM; in test [2] (n = 3, read-out: dissociation constant (Kd)) it was 0.00011 ± 1e-05 µM. The “receptor binding (Bmax)” value in test [2] (n = 3) came out at 1.11 ± 0.01 pmol/mg protein.

For the origin of these results see publication PMC2635646, “Recognition Properties and Competitive Assays of a Dual Dopamine/Serotonin Selective Molecularly Imprinted Polymer” (International Journal of Molecular Sciences, 2008).
